This note sets out measurements from patent US8349846B2, “Fused pyrimidine derivatives as TRPV3 modulators” (Glenmark Pharmaceuticals, S.A., priority 2008, dated 2013).

The target in the experiment is T1, Human TRPV3 (Homo sapiens, UniProt Q8NET8).
T1 construct: expressed in transfected cells; host or cells: CHO cells (selected with G-418)
T1 sequence (Q8NET8 1-790): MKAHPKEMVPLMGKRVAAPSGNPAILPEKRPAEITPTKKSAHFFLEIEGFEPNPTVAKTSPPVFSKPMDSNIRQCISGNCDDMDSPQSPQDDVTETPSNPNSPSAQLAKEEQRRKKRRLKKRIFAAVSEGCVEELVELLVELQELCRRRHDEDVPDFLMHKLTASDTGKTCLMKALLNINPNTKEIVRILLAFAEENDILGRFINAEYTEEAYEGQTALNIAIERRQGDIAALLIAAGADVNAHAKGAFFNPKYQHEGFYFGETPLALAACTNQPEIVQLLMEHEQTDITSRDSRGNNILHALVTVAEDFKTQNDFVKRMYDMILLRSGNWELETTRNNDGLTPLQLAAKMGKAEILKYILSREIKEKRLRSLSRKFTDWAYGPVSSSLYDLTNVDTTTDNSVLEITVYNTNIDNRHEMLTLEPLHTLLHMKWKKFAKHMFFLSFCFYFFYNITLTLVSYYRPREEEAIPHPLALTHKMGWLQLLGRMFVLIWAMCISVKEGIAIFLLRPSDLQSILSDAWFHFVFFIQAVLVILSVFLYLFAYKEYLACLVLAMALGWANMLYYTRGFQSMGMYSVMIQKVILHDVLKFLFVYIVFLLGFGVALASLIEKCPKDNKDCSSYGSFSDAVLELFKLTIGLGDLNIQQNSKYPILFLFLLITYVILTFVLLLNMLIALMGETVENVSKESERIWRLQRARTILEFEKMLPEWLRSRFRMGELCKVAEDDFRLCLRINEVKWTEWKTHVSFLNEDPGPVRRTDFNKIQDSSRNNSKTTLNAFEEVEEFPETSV
Nature of the experiment: Screening for TRPV3 antagonist using the 45Calcium uptake assay (inhibition of 2-APB induced cellular uptake of radioactive calcium). The experiment is classed as cell-based. The conditions noted are these: Human TRPV3 expressing CHO cells, 2-APB 500 μM; for inhibition at 1 µM / inhibition at 10 µM: CHO; for inhibition at 1 µM: 1.0 μM test compound, read-out: Percentage inhibition at 1.0 μM; for inhibition at 10 µM: 10.0 μM test compound, read-out: Percentage inhibition at 10.0 μM. The text has this: The illustrative examples of the present invention are screened for TRPV3 activity according to a modified procedure described in Tóth, A., Kedei, N., Wang, Y. and Blumberg, P. M. Life Sciences (2003), 73, 487-498. The screening of the compounds can be carried out by other methods and procedures known to a person skilled in the art. Such screening methods may be found in (a) Hu, H.-Z. et al. J. Biol. Chem. (2004), 279, 35741-35747; (b) Smith, G. D. et al. Nature (2002), 418, 186-190; (c) Peier, A. M. et al. Science (2002), 296, 2046-2049.
Screening for TRPV3 Antagonist Using the ^45Calcium Uptake Assay:
The inhibition of TRPV3 receptor activation was followed as inhibition of 2-aminoethxydiphenylborate (2-APB) induced cellular uptake of radioactive calcium. Test compounds were dissolved in dimethyl sulfoxide (DMSO) to prepare 20 mM stock solution and then diluted using plain medium with DMEM/F-12 containing 1.8 mM CaCl2 to get desired concentration. Final concentration of DMSO in the reaction was 0.5% (v/v). Human TRPV3 expressing CHO cells were grown in DMEM/F-12 medium with 10% FBS, 1% penicillin-streptomycin solution, 400 μg/ml of G-418. Cells were seeded 24 h prior to the assay in 96 well plates so as to get ˜50,000 cells per well on the day of experiment. Cells were treated with test compounds for 10 minutes followed by addition of 2-APB at a final concentration of 500 μM and 5 μCi/ml ^45Ca^+2 for 4 minutes. Cells were washed and lysed using buffer containing 1% Triton X-100, 0.1% deoxycholate and 0.1% SDS. Radioactivity in the lysate was measured in Packardt Top count after addition of liquid scintillant. Concentration response curves were plotted as a % of maximal response obtained in the absence of test antagonist. IC50 value was calculated from concentration response curve by nonlinear regression analysis using GraphPad PRISM software.
Percentage inhibition at concentrations of 1.0 μM and 10.0 μM are given in the table along with IC50 (nM) values for selected examples.

The inhibition is the share of the control response that was lost under treatment. With `COc1cccc(/C=C/c2nc3ccccn3c(=O)c2-c2cc(F)cc(F)c2)c1OC1CCCC1` [Example 21, 2-{(E)-2-[2-(Cyclopentyloxy-3-methoxy)phenyl]vinyl}-3-(3,5-difluoro) phenyl-4H-pyrido[1,2-a]pyrimidin-4-one], the inhibition at 1 µM was 27.2% and the inhibition at 10 µM was found to be 39.3%.

A word on the IC50: it is the concentration that gives 50% inhibition. Turning to `COc1cccc(/C=C/c2nc3ccc(Cl)cn3c(=O)c2-c2ccc(C#N)cc2)c1OC1CCCC1` [Example 43, 4-{7-Chloro-2-[(E)-2-(2-cyclopentyloxy-3-methoxy)phenylvinyl]-4-oxo-4H-pyrido[1,2-a]pyrimidin-3-yl}benzonitrile], the inhibition at 1 µM came out at 78.7%, the inhibition at 10 µM turned out to be 90.2% and the IC50 is < 500 nM.

On to `COc1cccc(/C=C/c2nc3ccccn3c(=O)c2-c2ccc(OC(F)(F)F)cc2)c1OC1CCCC1` [Example 24, 2-{(E)-2-[(2-Cyclopentyloxy-3-methoxy)phenyl]vinyl}-3-(4-trifluoromethoxy)phenyl-4H-pyrido[1,2-a]pyrimidin-4-one], for which the inhibition at 1 µM was found to be 20.6%, the inhibition at 10 µM was determined as 3.6% and the IC50 was in the range of 1000 to 2500 nM.

Regarding `COc1cccc(/C=C/c2nc3ccccn3c(=O)c2-c2cccc(OC(C)C)c2)c1OC1CCCC1` [Example 27, 3-(3-Isopropoxyphenyl)-2-[(E)-2-(2-cyclopentyloxy-3-methoxy)phenylvinyl]-4H-pyrido-[1,2-a]pyrimidin-4-one], the inhibition at 1 µM was 54.2%, the inhibition at 10 µM is 77.6% and the 50% inhibitory concentration (IC50) was 1000 to 2500 nM.

`COc1cccc(/C=C/c2nc3ccccn3c(=O)c2-c2ccc(C#N)cc2)c1OCC1CC1` [Example 19]: the inhibition at 1 µM came out at 87.8%, the inhibition at 10 µM worked out at 98.7% and the 50% inhibitory concentration (IC50) was < 500 nM.

In the case of `COc1cccc(/C=C/c2nc3ccccn3c(=O)c2-c2ccc(C(F)(F)F)cc2)c1OC1CCCC1` [Example 23, 2-{(E)-2-[2-(Cyclopentyloxy)-3-methoxyphenyl]vinyl}-3-(4-trifluoromethyl)phenyl-4H-pyrido[1,2-a]pyrimidin-4-one], the inhibition at 1 µM was determined as 62.8%, the inhibition at 10 µM turned out to be 86.7% and the IC50 is 500 to 1000 nM.

Take `COc1cccc(/C=C/c2nc3ccccn3c(=O)c2-c2ccccc2)c1OC1CCCC1` [Example 20, 2-{(E)-2-[2-(Cyclopentyloxy)-3-methoxyphenyl]vinyl}-3-phenyl-4H-pyrido[1,2-a]-pyrimidin-4-one]: the inhibition at 1 µM was found to be 45.9%, the inhibition at 10 µM is 76.7% and the IC50 was 1000 to 2500 nM.

Consider `COc1cccc(/C=C/c2nc3ccccn3c(=O)c2-c2ccc3c(c2)OCCO3)c1OC1CCCC1` [Example 38, 2-[(E)-2-(2-Cyclopentyloxy-3-methoxyphenyl)vinyl]-3-(2,3-dihydro-1,4-benzodioxin-6-yl)-4H-pyrido[1,2-a]pyrimidin-4-one], for which the inhibition at 1 µM is 55.5%, the inhibition at 10 µM amounted to 83.8% and the 50% inhibitory concentration (IC50) was < 500 nM.

As for `COc1cccc(/C=C/c2nc3ccccn3c(=O)c2-c2ccc(F)nc2)c1OC1CCCC1` [Example 36, 2-{(E)-2-[2-(Cyclopentyloxy-3-methoxy)phenyl]vinyl}-3-(6-fluoro)pyridin-3-yl-4H-pyrido[1,2-a]pyrimidin-4-one], the inhibition at 1 µM was 42.2%, the inhibition at 10 µM amounted to 82.4% and the concentration for half-maximal inhibition (IC50) lay in the range of 500 to 1000 nM.

As to `COc1cccc(-c2c(/C=C/c3cccc(OC)c3OC3CCCC3)nc3ccccn3c2=O)c1` [Example 26, 2-{(E)-2-[(2-Cyclopentyloxy-3-methoxy)phenyl]vinyl}-3-(3-methoxy)phenyl-4H-pyrido-[1,2-a]pyrimidin-4-one], the inhibition at 1 µM is 48% and the inhibition at 10 µM was determined as 69.3%.

For `COc1cccc(/C=C/c2nc3ccccn3c(=O)c2-c2ccc3c(c2)OCO3)c1OC1CCCC1` [Example 37, 3-(1,3-Benzodioxol-5-yl)-2-[(E)-2-(2-cyclopentyloxy-3-methoxy)phenylvinyl]-4H-pyrido[1,2-a]pyrimidin-4-one], the inhibition at 1 µM worked out at 70.1% and the inhibition at 10 µM turned out to be 91.4%.

Consider `O=c1c(-c2ccccc2)c(/C=C/c2ccc(Cl)cc2)nc2ccccn12` [Example 1, 2-[(E)-2-(4-Chlorophenyl)vinyl]-3-phenyl-4H-pyrido[1,2-a]pyrimidin-4-one], for which the inhibition at 1 µM was found to be 0.5% and the inhibition at 10 µM was 19.4%.

Take `COc1cccc(/C=C/c2nc3ccccn3c(=O)c2-c2ccc(C(F)(F)F)cc2)c1OCC1CC1` [Example 17]: the inhibition at 1 µM was 83.3%, the inhibition at 10 µM stood at 95.3% and the half-maximal inhibitory concentration (IC50) was < 500 nM.

With `COc1cccc(/C=C/c2nc3ccc(Cl)cn3c(=O)c2-c2ccc(C#N)cc2)c1OCC1CC1` [Example 42], the inhibition at 1 µM came out at 0% and the inhibition at 10 µM came out at 96.8%.

Regarding `COc1cccc(/C=C/c2nc3ccccn3c(=O)c2-c2ccc(SC)cc2)c1OC1CCCC1` [Example 34, 2-{(E)-2-[(2-Cyclopentyloxy-3-methoxy)phenyl]vinyl}-3-(4-thiomethyl)phenyl-4H-pyrido[1,2-a]pyrimidin-4-one], the inhibition at 1 µM turned out to be 36.8% and the inhibition at 10 µM came out at 51.3%.

For `CCCCCOc1c(/C=C/c2nc3ccccn3c(=O)c2-c2ccc(C(F)(F)F)cc2)cccc1OC` [Example 11], the inhibition at 1 µM was 69% and the inhibition at 10 µM came to 86.5%.

In the case of `COc1cccc(/C=C/c2nc3ccccn3c(=O)c2-c2cccc(NC(C)=O)c2)c1OC1CCCC1` [Example 31, N-(3-{2-[(E)-2-(2-Cyclopentyloxy-3-methoxy)phenylvinyl]-4-oxo-4H-pyrido[1,2-a]pyrimidin-3-yl}phenyl)acetamide], the inhibition at 1 µM was determined as 50.4% and the inhibition at 10 µM turned out to be 96.2%.

As for `CCCOc1c(/C=C/c2nc3ccccn3c(=O)c2-c2ccc(C(F)(F)F)cc2)cccc1OC` [Example 6], the inhibition at 1 µM is 71.5% and the inhibition at 10 µM was 67.5%.

Regarding `COc1cccc(/C=C/c2nc3ccccn3c(=O)c2-c2ccc3ncccc3c2)c1OC1CCCC1` [Example 39, 2-[(E)-2-(2-Cyclopentyloxy-3-methoxy)phenylvinyl]-3-quinolin-6-yl-4H-pyrido[1,2-a]pyrimidin-4-one], the inhibition at 1 µM came out at 84.6%, the inhibition at 10 µM is 96.1% and the half-inhibitory concentration (IC50) was < 500 nM.

Regarding `CCCCOc1c(/C=C/c2nc3ccccn3c(=O)c2-c2ccc(C(F)(F)F)cc2)cccc1OC` [Example 8], the inhibition at 1 µM worked out at 76.3% and the inhibition at 10 µM is 89.7%.

Regarding `CCCCCCOc1c(/C=C/c2nc3ccccn3c(=O)c2-c2ccc(C(F)(F)F)cc2)cccc1OC` [Example 13], the inhibition at 1 µM amounted to 58% and the inhibition at 10 µM is 77.3%.

Consider `COc1cccc(/C=C/c2nc3ccccn3c(=O)c2-c2ccc(C(=O)O)cc2)c1OC1CCCC1` [Example 29, 4-{4-Oxo-2-[(E)-2-(2-cyclopentyloxy-3-methoxy)phenylvinyl]-4H-pyrido[1,2-a]pyrimidin-3-yl}benzoic acid], for which the inhibition at 1 µM came out at 0% and the inhibition at 10 µM is 0.2%.

Consider `CCCCCCOc1c(/C=C/c2nc3ccccn3c(=O)c2-c2ccc(C#N)cc2)cccc1OC` [Example 14], for which the inhibition at 1 µM is 85.1%, the inhibition at 10 µM is 92.3% and the IC50 is < 500 nM.
